Reference: US20260234135A1, “CRYSTALLINE FORMS OR SALTS OF A DEUTERATED COMPOUND” (ALEBUND PHARMACEUTICALS (HONG KONG) LIMITED, priority 2023, published 2026)
Like-named read-outs stand apart in the source and are kept apart here.

Columns and labels:
[1] = Hygroscopicity evaluation by DVS at 25° C.; format: physicochemical
Method: DVS was measured via a SMS (Surface Measurement Systems) DVS Intrinsic. The relative humidity at 25° C. were calibrated against deliquescence point of LiCl, Mg(NO3)2 and KCl.

[2H]C([2H])(Cc1nc(-c2ccccc2)oc1C)Oc1ccc(C[C@H](OC)C(=O)[O-])c2sccc12.[Na+] [Na salt Form A]
Water uptake up to 80% RH ([1]; DVS, 25° C.): 5.5% | Form change after DVS test ([1]; XRPD after DVS): form change was observed | Area (%) of impurity peak RRT 0.89 (40° C./75% RH, 2 weeks): 0.04% | Area (%) of impurity peak RRT 1.14 (40° C./75% RH, 2 weeks): 0.03% | Area (%) of impurity peak RRT 1.34 (40° C./75% RH, 2 weeks): 0.23% | Area (%) of impurity peak RRT 0.89 (40° C./75% RH, 4 weeks): 0.07% | Area (%) of impurity peak RRT 1.34 (40° C./75% RH, 4 weeks): 0.23% | Area (%) of impurity peak RRT 0.89 (40° C./75% RH, 8 weeks): 0.05% | Area (%) of impurity peak RRT 1.34 (40° C./75% RH, 8 weeks): 0.24% | HPLC Purity (area %), main peak RRT 1.00 (40° C./75% RH/open, 2 weeks): 99.71 area % | HPLC Reults of initial (%) (40° C./75% RH/open, 2 weeks): 100.03% | HPLC Purity (area %), main peak RRT 1.00 (40° C./75% RH/open, 4 weeks): 99.69 area % | HPLC Reults of initial (%) (40° C./75% RH/open, 4 weeks): 100.02% | HPLC Purity (area %), main peak RRT 1.00 (40° C./75% RH/open, 8 weeks): 99.71 area % | HPLC Reults of initial (%) (40° C./75% RH/open, 8 weeks): 100.03% | Form or purity change after storage (60° C. for 8 weeks): Slightly purity decrease and form change | Area (%) of impurity peak RRT 0.58 (60° C., 2 weeks): 0.10% | Area (%) of impurity peak RRT 0.79 (60° C., 2 weeks): 0.07% | Area (%) of impurity peak RRT 0.81 (60° C., 2 weeks): 0.10% | Area (%) of impurity peak RRT 0.89 (60° C., 2 weeks): 0.08% | Area (%) of impurity peak RRT 0.91 (60° C., 2 weeks): 0.05% | Area (%) of impurity peak RRT 1.14 (60° C., 2 weeks): 0.05% | Area (%) of impurity peak RRT 1.34 (60° C., 2 weeks): 0.22% | Area (%) of impurity peak RRT 0.29 (60° C., 4 weeks): 0.07% | Area (%) of impurity peak RRT 0.58 (60° C., 4 weeks): 0.16% | Area (%) of impurity peak RRT 0.63 (60° C., 4 weeks): 0.05% | Area (%) of impurity peak RRT 0.79 (60° C., 4 weeks): 0.13% | Area (%) of impurity peak RRT 0.81 (60° C., 4 weeks): 0.20% | Area (%) of impurity peak RRT 0.86 (60° C., 4 weeks): 0.06% | Area (%) of impurity peak RRT 0.89 (60° C., 4 weeks): 0.08% | Area (%) of impurity peak RRT 0.91 (60° C., 4 weeks): 0.10% | Area (%) of impurity peak RRT 0.95 (60° C., 4 weeks): 0.05% | Area (%) of impurity peak RRT 1.34 (60° C., 4 weeks): 0.20% | Area (%) of impurity peak RRT 0.29 (60° C., 8 weeks): 0.11% | Area (%) of impurity peak RRT 0.58 (60° C., 8 weeks): 0.25% | Area (%) of impurity peak RRT 0.63 (60° C., 8 weeks): 0.12% | Area (%) of impurity peak RRT 0.79 (60° C., 8 weeks): 0.19% | Area (%) of impurity peak RRT 0.81 (60° C., 8 weeks): 0.35% | Area (%) of impurity peak RRT 0.86 (60° C., 8 weeks): 0.06% | Area (%) of impurity peak RRT 0.91 (60° C., 8 weeks): 0.21% | Area (%) of impurity peak RRT 0.95 (60° C., 8 weeks): 0.09% | Area (%) of impurity peak RRT 1.34 (60° C., 8 weeks): 0.20% | HPLC Purity (area %), main peak RRT 1.00 (60° C./close, 2 weeks): 99.33 area % | HPLC Reults of initial (%) (60° C./close, 2 weeks): 99.65% | HPLC Purity (area %), main peak RRT 1.00 (60° C./close, 4 weeks): 98.91 area % | HPLC Reults of initial (%) (60° C./close, 4 weeks): 99.23% | HPLC Purity (area %), main peak RRT 1.00 (60° C./close, 8 weeks): 98.43 area % | HPLC Reults of initial (%) (60° C./close, 8 weeks): 98.75% | Area (%) of impurity peak RRT 0.89 (Initial): 0.05% | Area (%) of impurity peak RRT 1.14 (Initial): 0.05% | Area (%) of impurity peak RRT 1.34 (Initial): 0.22% | HPLC Purity (area %), main peak RRT 1.00 (Initial): 99.68 area % | Form (XRPD after 40° C./75% RH/open, 2/4/8 weeks): New form

[2H]C([2H])(Cc1nc(-c2ccccc2)oc1C)Oc1ccc(C[C@H](OC)C(=O)O)c2sccc12 [free acid Form E]
Area (%) of impurity peak RRT 0.88 (40° C./75% RH, 2 weeks): 0.33% | Area (%) of impurity peak RRT 1.14 (40° C./75% RH, 2 weeks): 0.15% | Area (%) of impurity peak RRT 1.28 (40° C./75% RH, 2 weeks): 0.18% | Area (%) of impurity peak RRT 1.33 (40° C./75% RH, 2 weeks): 0.25% | Area (%) of impurity peak RRT 0.88 (40° C./75% RH, 4 weeks): 0.35% | Area (%) of impurity peak RRT 1.14 (40° C./75% RH, 4 weeks): 0.15% | Area (%) of impurity peak RRT 1.28 (40° C./75% RH, 4 weeks): 0.23% | Area (%) of impurity peak RRT 1.33 (40° C./75% RH, 4 weeks): 0.27% | Area (%) of impurity peak RRT 0.88 (40° C./75% RH, 8 weeks): 0.32% | Area (%) of impurity peak RRT 1.14 (40° C./75% RH, 8 weeks): 0.13% | Area (%) of impurity peak RRT 1.28 (40° C./75% RH, 8 weeks): 0.20% | Area (%) of impurity peak RRT 1.33 (40° C./75% RH, 8 weeks): 0.27% | HPLC Purity (area %), main peak RRT 1.00 (40° C./75% RH/open, 2 weeks): 99.08 area % | HPLC Reults of initial (%) (40° C./75% RH/open, 2 weeks): 100.07% | HPLC Purity (area %), main peak RRT 1.00 (40° C./75% RH/open, 4 weeks): 99.00 area % | HPLC Reults of initial (%) (40° C./75% RH/open, 4 weeks): 99.99% | HPLC Purity (area %), main peak RRT 1.00 (40° C./75% RH/open, 8 weeks): 99.03 area % | HPLC Reults of initial (%) (40° C./75% RH/open, 8 weeks): 100.02% | Area (%) of impurity peak RRT 0.88 (60° C., 2 weeks): 0.32% | Area (%) of impurity peak RRT 1.14 (60° C., 2 weeks): 0.16% | Area (%) of impurity peak RRT 1.28 (60° C., 2 weeks): 0.23% | Area (%) of impurity peak RRT 1.33 (60° C., 2 weeks): 0.25% | Area (%) of impurity peak RRT 0.88 (60° C., 4 weeks): 0.38% | Area (%) of impurity peak RRT 1.14 (60° C., 4 weeks): 0.17% | Area (%) of impurity peak RRT 1.28 (60° C., 4 weeks): 0.26% | Area (%) of impurity peak RRT 1.33 (60° C., 4 weeks): 0.29% | Area (%) of impurity peak RRT 0.88 (60° C., 8 weeks): 0.34% | Area (%) of impurity peak RRT 1.14 (60° C., 8 weeks): 0.14% | Area (%) of impurity peak RRT 1.28 (60° C., 8 weeks): 0.23% | Area (%) of impurity peak RRT 1.33 (60° C., 8 weeks): 0.27% | Form or purity change after storage (60° C./close and 40° C./75% RH/open for 2/4/8 weeks): No form or purity decrease | HPLC Purity (area %), main peak RRT 1.00 (60° C./close, 2 weeks): 99.04 area % | HPLC Reults of initial (%) (60° C./close, 2 weeks): 100.03% | HPLC Purity (area %), main peak RRT 1.00 (60° C./close, 4 weeks): 98.89 area % | HPLC Reults of initial (%) (60° C./close, 4 weeks): 99.88% | HPLC Purity (area %), main peak RRT 1.00 (60° C./close, 8 weeks): 98.96 area % | HPLC Reults of initial (%) (60° C./close, 8 weeks): 99.95% | Area (%) of impurity peak RRT 0.88 (Initial): 0.31% | Area (%) of impurity peak RRT 1.14 (Initial): 0.16% | Area (%) of impurity peak RRT 1.28 (Initial): 0.26% | Area (%) of impurity peak RRT 1.33 (Initial): 0.25% | HPLC Purity (area %), main peak RRT 1.00 (Initial): 99.01 area %
